{"source": "patent US5298621A", "about": "“Oligopeptide derivatives of ipoxantine endowed with immunomodulating activity and pharmaceutical compositions containing same” (Sigma-Tau Industrie Farmaceutiche Riunite S.p.A., priority 1990, dated 1994)", "key": {"DTH reaction vs. SRBC": {"test_system": "DTH reaction vs. SRBC", "assay": "Delayed type hypersensitivity test (DTH) vs. SRBC in mice", "format": "in vivo", "conditions": "25 mg/kg/day i.p. from day -3 to day +3 respect to the immunization", "method": "Test 6 Assessment of the effect of ST 785 and ST 789 on the delayed type hypersensitivity test (DTH).\nMale B6 D2 F1 mice (Charles River, Italy) aged 6, 12 and 16 weeks (8 animals per group) were used.\nThe compounds were administered i.p., 25 mg/kg/day from day -3 to day +3 (immunization at day 0). Immunization was carried out by s.c. injection in the upper dorsal zone of the animals of 0.2 mL of SRBC (5×10^7 cells/mL).\nFour days following the sensitizing injection, the animals were administered the challenge injection to bring about the delayed hypersensibility reaction. 50 μL of SRBC solution (2×10^9 cells/mL) were injected in the left hind foot-pad of the mice. The contralateral foot-pad received an equal volume of PBS. 24 hours after the challenge injection, the animals were sacrificed by cervical dislocation. The legs were amputated and the differences in weight between the left leg (treated with the challenge injection) and the contralateral leg were evaluated.\nThe mean of weight differences in the legs of the animals of the same experimental group was determined; the differences in the mean values calculated for each experimental group were processed using Student's \"t\" test (Biostatistics in Pharmacology, loc cit.).\nThe experimental procedure which was used is described by Miller, T. E. et al, (1973), Immunopotentiation with BCG. Modulation of the response to sheep red blood cells. J. Cancer Inst., 51:1669."}, "thymocytes": {"test_system": "thymocytes", "assay": "\"In vitro-ex vivo\" mytogen (PHA, Con A)-induced murine thymocite proliferation", "parameters": "species or system mice", "conditions": "25 mg/kg/day i.p. from day -4 to day -1", "method": "Test 7 Assessment of the \"in vitro-ex vivo\" effect of ST 754, ST 785 and ST 789 on the mytogen (PHA, Con A)-induced murine thymocite proliferation.\nThe compounds were administered at the dose of 25 mg/kg/day from day -4 to day -1 (thymus excision at day 0). This test was conducted following the procedure described for test 5.\nThe Stimulation Index (S.I.) is as defined in test 5."}}, "data": [{"smiles": "N=C(N)NCCC[C@H](NC(=O)OCCCCCn1cnc2c(=O)[nH]cnc21)C(=O)O", "note": "[ST 789, N-5-(ipoxantin-9-yl) pentyloxycarbonylarginine, reference compound]", "values": [{"measurement": "Mean difference in weight (mg ± S.E.) between treated and untreated foot-pads", "setting": "DTH reaction vs. SRBC", "value": "34.9 ± 0.76", "unit": "mg"}, {"measurement": "Body weight", "setting": "thymocytes", "value": "22.8 ± 0.5", "unit": "g"}, {"measurement": "Thymus weight", "setting": "thymocytes", "value": "74.2 ± 4.4", "unit": "mg"}, {"measurement": "Con A AUC (× 10^-3)", "setting": "thymocytes; Con A-induced proliferation", "value": "68 × 10^-3"}, {"measurement": "Con A I.S. (stimulation index)", "setting": "thymocytes; Con A-induced proliferation", "value": 1.10}, {"measurement": "PHA AUC (area under curve)", "setting": "thymocytes; PHA-induced proliferation", "value": 3924}, {"measurement": "PHA I.S. (stimulation index)", "setting": "thymocytes; PHA-induced proliferation", "value": 1.40}, {"measurement": "Thymocytes No. (× 10^7)", "setting": "thymocytes; pooled samples", "value": "12.1 × 10^7"}]}]}
